Experimental data from patent US20240025906A1 (NEURON23, INC., priority 2022, published 2024).
pIC50, pKd: −log10 of the molar value. Like-named read-outs stand apart in the source and are kept apart here.

Assays:
TYK2 JH2 = target: T1, TYK2 JH2 (Homo sapiens, UniProt P29597); experiment: TYK2 JH2 binding assay (KINOMEscan KdELECT competitive binding); conditions: TYK2 JH2 domain
T1 construct: purchased DiscoverX (KINOMEscan KdELECT service); host or cells: E. coli BL21-derived (T7 phage display) or HEK-293
T1 sequence (P29597 589-875 limits assumed): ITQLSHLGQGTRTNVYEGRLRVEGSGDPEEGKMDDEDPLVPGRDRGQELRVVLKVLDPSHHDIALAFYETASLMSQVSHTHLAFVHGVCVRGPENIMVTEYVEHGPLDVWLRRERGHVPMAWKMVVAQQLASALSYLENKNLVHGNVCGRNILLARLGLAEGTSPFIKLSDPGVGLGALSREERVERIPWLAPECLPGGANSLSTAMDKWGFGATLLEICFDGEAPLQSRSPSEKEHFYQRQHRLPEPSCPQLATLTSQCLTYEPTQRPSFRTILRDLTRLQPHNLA
Outline: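 The assay measures displacement of DNA- or phage-tagged TYK2 pseudokinase domain from an affinity resin; compound binding lowers the amount captured, read by qPCR. Incubation lasts 1 h at room temperature.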

[1] = test system: JAK1/TYK2 pSTAT5 (Tyr694/699) in THP-1 cell line; experiment: IFNa-stimulated JAK1/TYK2 pSTAT5 (Tyr694/699) inhibition cellular assay, AlphaLISA; type: cell-based; conditions: Homo sapiens, THP-1 cells, AlphaLISA (Assay B)
Outline: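 An eight-point 6-fold titration of compound (0.04–10000 nM final) is given to THP-1 cells for 1 h before 30 min of IFNa exposure. Phospho-STAT5 is read by AlphaLISA at 615 nm. IC50 values are derived by logistic regression with bottom set to 0 and Hill slope set to −1.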

[2] = KINOMEscan KdELECT (Assay A), read-out: Biochemical TYK2_JH2_Kd
[3] = IFNa-stimulated, read-out: Cellular THP1_IFNa-pSTATS_IC50
[4] = DiscoverX KINOMEscan KdELECT (Assay A), read-out: Biochemical TYK2_DiscoverX_JH2_BND_Kd
[5] = IFNa-stimulated, read-out: Cellular_THP1_IFNa-pSTATS_TYK2
[6] = KINOMEscan KdELECT (Assay A), read-out: Biochemical TYK2_DiscoverX_JH2_BND_Kd
[7] = IFNa-stimulated pSTAT5 (Tyr694/699), read-out: Cellular_THP1_IFNa-pSTATS_TYK2

| pKd (TYK2 JH2; [4]) | pIC50 [1, 5] | pKd (TYK2 JH2; [6]) | SMILES | other results |
| --- | --- | --- | --- | --- |
|  |  |  | CNc1ncc(-c2ccc(C(F)(F)F)cc2)c2cc(NC(=O)C3CC3)ncc12 [Example 109, N-(8-(methylamino)-5-(4-(trifluoromethyl)phenyl)-2,7-naphthyridin-3-yl)cyclopropanecarboxamide] | pKd (TYK2 JH2; [2]): ≥ 7.00; pIC50 [1, 3]: < 6.30 |
| ≥ 7.00 | ≥ 6.30 |  | O=C(Nc1cc2c(-c3nc4ccc(N5CCOCC5)cn4n3)cnc(NC3CC3)c2cn1)C1CC1 [Example 518, N-(8-(cyclopropylamino)-5-(6-morpholino-[1,2,4]triazolo[1,5-a]pyridin-2-yl)-2,7-naphthyridin-3-yl)cyclopropanecarboxamide] |  |
|  |  | ≥ 7.00 | CNc1ncc(-c2nc3ccc(N4CCO[C@H](C(C)(C)OC)C4)cn3n2)c2cc(NC(=O)C3CC3)ncc12 [Example 1033] | pIC50 [1, 7]: ≥ 6.30 |
|  | ≥ 6.30 | ≥ 7.00 | CNc1ncc(C#Cc2ccc3nc4n(c3c2)CCCC4)c2cc(NC(=O)C3CC3)ncc12 [Example 807, N-(8-(methylamino)-5-((1,2,3,4-tetrahydrobenzo[4,5]imidazo[1,2-a]pyridin-8-yl)ethynyl)-2,7-naphthyridin-3-yl)cyclopropanecarboxamide] |  |
|  |  | ≥ 7.00 | CNc1ncc(-c2nc3ccc(N4CCOC(C(C)(C)F)C4)cn3n2)c2cc(NC(=O)C3CC3)ncc12 (single isomer, unassigned) [Example 1049] | pIC50 [1, 7]: ≥ 6.30 |
|  |  | ≥ 7.00 | CNc1ncc(C#Cc2ccc(N3CCOCC3=O)cc2)c2cc(NC(=O)C3CC3)ncc12 [Example 999, N-(8-(methylamino)-5-((4-(3-oxomorpholino)phenyl)ethynyl)-2,7-naphthyridin-3-yl)cyclopropanecarboxamide] | pIC50 [1, 7]: ≥ 6.30 |
|  | ≥ 6.30 | ≥ 7.00 | CNc1ncc(C#Cc2cnc3cccnn23)c2cc(NC(=O)C3CC3)ncc12 [Example 611, N-(5-(imidazo[1,2-b]pyridazin-3-ylethynyl)-8-(methylamino)-2,7-naphthyridin-3-yl)cyclopropanecarboxamide] |  |
|  | ≥ 6.30 | ≥ 7.00 | CNc1ncc(C#Cc2ccc3c(c2)C(F)(F)C(=O)N3C)c2cc(NC(=O)C3CC3)ncc12 [Example 972, N-[5-[2-(3,3-difluoro-1-methyl-2-oxo-indolin-5-yl)ethynyl]-8-(methylamino)-2,7-naphthyridin-3-yl]cyclopropanecarboxamide] |  |
| ≥ 7.00 | ≥ 6.30 |  | CNc1ncc(-c2nc3cc(N4CC5CN(C)CC(C4)O5)ccc3o2)c2cc(NC(=O)C3CC3)ncc12 [Example 327, N-(5-(5-(7-methyl-9-oxa-3,7-diazabicyclo[3.3.1]nonan-3-yl)benzo[d]oxazol-2-yl)-8-(methylamino)-2,7-naphthyridin-3-yl)cyclopropanecarboxamide] |  |
|  |  | ≥ 7.00 | CNc1ncc(C#Cc2ccc(-n3c(=O)ccn3C)cc2)c2cc(NC(=O)[C@H]3C[C@H]3C)ncc12 [Example 1142, (1S,2R)-2-methyl-N-[8-(methylamino)-5-[2-[4-(2-methyl-5-oxo-pyrazol-1-yl)phenyl]ethynyl]-2,7-naphthyridin-3-yl]cyclopropanecarboxamide] | pIC50 [1, 7]: ≥ 6.30 |
| ≥ 7.00 | ≥ 6.30 |  | CNc1ncc(-c2nc3ccc(N4CCO[C@@H](C)C4)cn3n2)c2cc(NC(=O)[C@@H]3C[C@@H]3C)ncc12 [Example 590, (1R,2S)-2-methyl-N-(8-(methylamino)-5-(6-((S)-2-methylmorpholino)-[1,2,4]triazolo[1,5-a]pyridin-2-yl)-2,7-naphthyridin-3-yl)cyclopropane-11-carboxamide] |  |
|  | ≥ 6.30 | ≥ 7.00 | CNc1ncc(C#Cc2ccc(OC(F)F)cc2)c2cc(NC(=O)C3CC3)ncc12 [Example 654, N-(5-((4-(difluoromethoxy)phenyl)ethynyl)-8-(methylamino)-2,7-naphthyridin-3-yl)cyclopropanecarboxamide] |  |
|  | ≥ 6.30 | ≥ 7.00 | CNc1ncc(C#Cc2ccc(OC3CN(C(C)=O)C3)cn2)c2cc(NC(=O)C3CC3)ncc12 [Example 735, N-(5-((5-((1-acetylazetidin-3-yl)oxy)pyridin-2-yl)ethynyl)-8-(methylamino)-2,7-naphthyridin-3-yl)cyclopropanecarboxamide] |  |
|  |  |  | CNc1ncc(/C=C/c2cccc(OC)c2)c2cc(NC(=O)C3CC3)ncc12 [Example 167, (E)-N-(5-(3-methoxystyryl)-8-(methylamino)-2,7-naphthyridin-3-yl)cyclopropanecarboxamide] | pKd (TYK2 JH2; [2]): ≥ 7.00; pIC50 [1, 3]: ≥ 6.30 |
| ≥ 7.00 | ≥ 6.30 |  | [2H]C([2H])([2H])Nc1ncc(-c2nc3cc(OC([2H])([2H])[2H])ccc3o2)c2cc(NC(=O)[C@H]3C[C@H]3C)ncc12 [Example 439, (1S,2R)—N-(5-(5-(methoxy-d3)benzo[d]oxazol-2-yl)-8-((methyl-d3)amino)-2,7-naphthyridin-3-yl)-2-methylcyclopropane-1-carboxamide] |  |
| ≥ 7.00 | ≥ 6.30 |  | CNc1ncc(-c2nc3cc(N4CCO[C@@H](C)C4)ccc3o2)c2cc(NC(=O)[C@@H]3C[C@@H]3CF)ncc12 (racemic) [Example 410, 2-(fluoromethyl)-N-(8-(methylamino)-5-(5-((S)-2-methylmorpholino)benzo[d]oxazol-2-yl)-2,7-naphthyridin-3-yl)cyclopropane-1-carboxamide] |  |
| ≥ 7.00 | ≥ 6.30 |  | CNc1ncc(-c2nc3cc(OCCS(C)(=O)=O)ccc3o2)c2cc(NC(=O)C3CC3)ncc12 [Example 354, N-(8-(methylamino)-5-(5-(2-(methylsulfonyl)ethoxy)benzo[d]oxazol-2-yl)-2,7-naphthyridin-3-yl)cyclopropanecarboxamide] |  |
| ≥ 7.00 | ≥ 6.30 |  | CNc1ncc(-c2nc3ccc(N4CCO[C@@H](C)C4)c(F)n3n2)c2cc(NC(=O)C3CC3)ncc12 [Example 508, (S)—N-(5-(5-fluoro-6-(2-methylmorpholino)-[1,2,4]triazolo[1,5-a]pyridin-2-yl)-8-(methylamino)-2,7-naphthyridin-3-yl)cyclopropanecarboxamide] |  |
|  | ≥ 6.30 | ≥ 7.00 | [2H]C([2H])([2H])n1nccc1C#Cc1cnc(NC)c2cnc(NC(=O)C3CC3)cc12 [Example 901, N-(5-((1-(methyl-d3)-1H-pyrazol-5-yl)ethynyl)-8-(methylamino)-2,7-naphthyridin-3-yl)cyclopropanecarboxamide] |  |
|  |  |  | CNc1ncc(-c2ccccc2S(C)(=O)=O)c2cc(NC(=O)C3CC3)ncc12 [Example 48, N-(8-(methylamino)-5-(2-(methylsulfonyl)phenyl)-2,7-naphthyridin-3-yl)cyclopropanecarboxamide] | pKd (TYK2 JH2; [2]): 5.00 to 6.00; pIC50 [1, 3]: < 6.30 |
|  | ≥ 6.30 | ≥ 7.00 | CNc1ncc(C#Cc2cnccn2)c2cc(NC(=O)C3CC3)ncc12 [Example 632, N-(8-(methylamino)-5-(pyrazin-2-ylethynyl)-2,7-naphthyridin-3-yl)cyclopropanecarboxamide] |  |

| SMILES | pKd (TYK2 JH2; [4]) | pIC50 [1, 5] | pKd (TYK2 JH2; [6]) | other results |
| --- | --- | --- | --- | --- |
| [2H]C([2H])([2H])Nc1ncc(-c2nc3cc(N4C5CCC4COC5)ccc3o2)c2cc(NC(=O)[C@H]3C[C@H]3C)ncc12 [Example 455, (1S,2R)—N-(5-(5-(3-oxa-8-azabicyclo[3.2.1]octan-8-yl)benzo[d]oxazol-2-yl)-8-((methyl-d3)amino)-2,7-naphthyridin-3-yl)-2-methylcyclopropane-1-carboxamide] | ≥ 7.00 | ≥ 6.30 |  |  |
